{"source": "patent US20250049753A1", "about": "“METHODS AND COMPOSITIONS FOR DELIVERING MYCOPHENOLIC ACID ACTIVE AGENTS TO NON-HUMAN MAMMALS” (Okava Pharmaceuticals, Inc., priority 2017, published 2025)", "experiment": "Study 1: single-dose cross-over PK, oral vs intracolonic Na.MPA", "format": "in vivo, male beagle dogs", "conditions": "for dose-normalized AUClast MPA: fasted, average", "protocol": "Two single dose cross-over studies were conducted using a canine model (male beagle dogs) to evaluate the potential of an enteric coated-extended release sodium mycophenolate formulation (“EC-ER-Na.MP”). In a first cross-over study, the pharmacokinetics of MPA and its metabolites (MPAG and AcMPAG) following oral dosing of 180 mg of EC-Na.MPA was compared with intracolonic (IC) administration of Na.MPA. In a second cross-over study, 270 mg of an EC-ER-Na.MPA formulation was administered in the both fed and fasted states and pharmacokinetics were compared with oral administration of 10 mg/kg MMF in the fasted state. Both studies were conducted by Absorption Systems (San Diego, CA).\nStudy 1: For three days prior to IC dosing, dogs (n=5) were offered a soft diet consisting of canned wet food (Pedigree® Choice Cuts). Otherwise, the dogs were offered their standard diet (LabDiet 5006 laboratory canine diet). Prior to each dosing event, the dogs were fasted for 12 hours prior to dosing until 4 hours post-dose, when food was returned. Animals had free access to water throughout the study. Prior to IC dosing, each dog was given a non-stimulant enema approximately 1 hour prior to dosing to remove feces from the colon. Prior to PO dosing, each dog (n=5) was pre-treated with an intramuscular dose of pentagastrin (6 μg/kg) approximately 30 minutes prior to dosing. Capsules were administered by placement in the back of the throat followed by a 10 mL flush with water.\nEach dog received a total dose of 180 mg of MPA for each dose. For IC dosing, MPA was delivered as a solution via an endoscope, and for PO dosing each dog received a single Myfortic® 180 mg enteric coated capsule. Following administration, blood samples were collected up to 24 hours post-dose. Plasma concentrations of MPA, MPAG, and AcMPAG were determined with a qualified LC-MS/MS method, and pharmacokinetic parameters were determined with WinNonlin v.6.4 software.", "note": "Values joined by “and” are separate entries in the source; they are usually repeats but may differ in a detail not shown here. Equal values may be shown once."}
{"compound": "COc1c(C)c2c(c(O)c1C/C=C(\\C)CCC(=O)O)C(=O)OC2", "note": "[MPA, Mycophenolic acid]", "values": [{"measurement": "dose-normalized AUClast MPA", "setting": "IC 180 mg/dog", "result": "1817 ± 925 kg·ng·h/mL/mg and 1817 kg·ng·h/mL/mg"}, {"measurement": "dose-normalized AUClast MPA", "setting": "PO 180 mg/dog", "result": "2234 ± 799 kg·ng·h/mL/mg and 2234 kg·ng·h/mL/mg"}, {"measurement": "systemic exposure to MPA following IC and PO dosing", "setting": "based on average values", "result": "similar"}, {"measurement": "rate of MPA absorption, IC in comparison to PO dose", "setting": "dog, in vivo, po", "result": "more rapidly absorbed following IC dosing"}]}
